# In patent publication US20220249492A1, “ANTICANCER COMBINATION THERAPY” (Boehringer Ingelheim International GmbH, priority 2019, published 2022):
# Key:
# [1] = target: T1, protein-protein interaction between SOS1 and KRAS G12D (Homo sapiens, UniProt Q07889); assay: KRAS::SOS1 AlphaScreen binding assay
# T1 construct: GST-TEV-SOS1 (564-1049) is purchased from Viva Biotech Ltd; purchased Viva Biotech Ltd. (GST-TEV-SOS1); Xtal BioStructures, Inc. (K-Ras G12D) Lot #X129-110 (K-Ras)
# T1 sequence (Q07889 564-1049): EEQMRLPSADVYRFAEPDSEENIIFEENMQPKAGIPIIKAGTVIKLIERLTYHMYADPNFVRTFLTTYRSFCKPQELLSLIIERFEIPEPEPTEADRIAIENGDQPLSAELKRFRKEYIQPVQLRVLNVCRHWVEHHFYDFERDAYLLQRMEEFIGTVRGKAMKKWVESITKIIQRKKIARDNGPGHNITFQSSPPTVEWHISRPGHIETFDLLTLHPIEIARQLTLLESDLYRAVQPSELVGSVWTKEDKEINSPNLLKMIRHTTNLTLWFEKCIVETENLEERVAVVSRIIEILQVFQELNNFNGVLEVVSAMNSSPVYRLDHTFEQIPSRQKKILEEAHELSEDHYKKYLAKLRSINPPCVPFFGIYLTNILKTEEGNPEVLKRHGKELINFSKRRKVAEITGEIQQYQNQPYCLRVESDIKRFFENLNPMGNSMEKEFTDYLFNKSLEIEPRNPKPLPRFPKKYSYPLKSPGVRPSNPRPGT
# Method: KRAS::SOS1 AlphaScreen Binding Assay
# Low IC50 values are indicative of high potency of the SOS1 inhibitors in this assay setting:
# 10 nM (final assay concentration) KRAS G12D, 10 μM (final assay concentration) GDP and 5 nM (final assay concentration) GST-SOS1 are mixed in assay buffer prior to use and kept at room temperature.
# AlphaLISA Glutathione Acceptor Beads and AlphaScreen Streptavidin Donor Beads are mixed in assay buffer at a concentration of 10 μg/mL (final assay concentration) each prior to use and kept at room temperature.
# Compounds are diluted to a final start concentration of 100 μM and are tested in duplicate. Assay-ready plates (ARPs) are generated using an Access Labcyte Workstation with a Labcyte Echo 550 or 555 accoustic dispenser. For compound a start concentration of 100 μM, 150 nL of compound solution is transferred per well in 11 concentrations in duplicate with serial 1:5 dilutions.
# The assay is run using a fully automated robotic system in a darkened room below 100 Lux. 10 μL of KRAS::SOS1 GDP mix is added into columns 1-24 to the 150 nL of compound solution (final dilution in the assay 1:100, final DMSO concentration 1%).
# After a 30 minute incubation time 5 μL of bead mix is added into columns 1-23. Plates are kept at room temperature in a darkened incubator. After a further 60 minute incubation, the signal is measured using a PerkinElmer Envision HTS Multilabel Reader using the AlphaScreen specifications from PerkinElmer. Each plate contains the following controls: • diluted DMSO+KRAS::SOS1 GDP mix+bead mix • diluted DMSO+KRAS::SOS1 GDP mix
# IC50 values are calculated and analyzed using a 4 parametric logistic model.
# [2] = tested on: ERK phosphorylation (pERK Thr202/Tyr204) in DLD-1 cells (KRAS G13D); assay: ERK phosphorylation assay (AlphaLISA SureFire Ultra p-ERK1/2) in DLD-1 cells; assay type: cell-based; details: Homo sapiens, 1 h compound incubation, EGF 50 ng/mL for 10 minutes
# Method: ERK Phosphorylation Assay
# Low IC50 values are indicative of high potency of the SOS1 inhibitors in this assay setting.
# ERK phosphorylation assays are performed using the following human cell lines:
# DLD-1 (ATCC CCL-221): human colon cancer with a KRAS G13D mutation;
# DLD-1 cells (ATCC CCL-221) are seeded at 50,000 cells per well in/60 μL of RPMI with 10% FBS, non-essential amino acids, pyruvate and glutamax in Greiner TC 384 plates. The cells are incubated for 1 h at room temperature and then incubated overnight in an incubator at 37° C. and 5% CO2 in a humidified atmosphere. 60 nL compound solution (10 mM DMSO stock solution) is then added using a Labcyte Echo 550 device. After a 1 h incubation in the aforementioned incubator, 3 μL Epidermal Growth Factor (EGF, final concentration 50 ng/mL) is added. […] After 20 minutes of incubation at room temperature with shaking, 6 μL of each lysate sample is transferred to a 384-well Proxiplate and analyzed for pERK (Thr202/Tyr204) with the AlphaLISA SureFire Ultra pERK1/2 (Thr202/Tyr204) Assay Kit. 3 μL Acceptor Mix and 3 μL Donor Mix are added under subdued light and incubated for 2 h at room temperature in the dark, before the signal is measured on a Perkin Elmer Envision plate reader using 384 AlphaScreen settings for Proxiplates. […]
# [3] = Metabolic (microsomal) stability assay, human (HLM); assay type: in vitro ADME; details: human liver microsomes, 1 mg/mL protein, 1 μM test compound, 37° C.; predicted clearance as percent of liver blood flow
# Method: (§1) Metabolic (Microsomal) Stability Assay:
# (§2) The metabolic degradation of the test compound is assayed at 37° C. with pooled liver microsomes (mouse (MLM), rat (RLM) or human (HLM)). The final incubation volume of 74 μL per time point contains TRIS buffer (pH 7.5; 0.1 M), magnesium chloride (6.5 mM), microsomal protein (0.5 mg/mL for mouse/rat, 1 mg/mL for human specimens) and the test compound at a final concentration of 1 μM. Following a short preincubation period at 37° C., the reactions are initiated by addition of 8 μL beta-nicotinamide adenine dinucleotide phosphate, reduced form (NADPH, 10 mM) and terminated by transferring an aliquot into solvent after different time points. Additionally, the NADPH-independent degradation is monitored in incubations without NADPH, terminated at the last time point by addition of acetonitrile. The quenched incubations are pelleted by centrifugation (1811 g, 5 min). An aliquot of the supernatant is assayed by LC-MS/MS for the amount of parent compound.
# (§3) In vitro intrinsic clearance (CLint,in vitro) is calculated from the time course of the disappearance of the test drug during the microsomal incubation. […] For better across species comparison the predicted clearance is expressed as percent of the liver blood flow [% QH] in the individual species. […]
# [4] = Metabolic (microsomal) stability assay, rat (RLM); assay type: in vitro ADME; details: rat liver microsomes, 0.5 mg/mL protein, 1 μM test compound, 37° C.; predicted clearance as percent of liver blood flow
# Method: as §1, §2, §3
# [5] = Metabolic (microsomal) stability assay, mouse (MLM); assay type: in vitro ADME; details: mouse liver microsomes, 0.5 mg/mL protein, 1 μM test compound, 37° C.; predicted clearance as percent of liver blood flow
# Method: as §1, §2, §3
# [6] = target: T2, CYP3A4 (Homo sapiens, UniProt P08684); assay: Time dependent inhibition of CYP3A4 assay (TDI 3A4); assay type: in vitro ADME; details: human liver microsomes, 25 uM test compound; hydroxy-midazolam formation after 30 min preincubation relative to 0 min preincubation
# T2 construct: from tissue; host or cells: human liver microsomes
# Method: Time dependent inhibition of CYP3A4 Assay (TDI 3A4):
# The time dependent inhibition towards CYP3A4 is assayed in human liver microsomes (0.02 mg/mL) with midazolam (15 μM) as a substrate. The test compounds are preincubated in presence of NADPH with human liver microsomes (0.2 mg/mL) at a concentration of 25 uM for 0 min and 30 min. After preincubation, the incubate is diluted 1:10 and the substrate midazolam is added for the main incubation (15 min). The main incubation is quenched with acetonitrile and the formation of hydroxy-midazolam is quantified via LC/MS-MS. The formation of hydroxy-midazolam from the 30 min preincubation relative to the formation from the 0 min preincubation is used as a readout. Values of less than 100% mean that the substrate midazolam is metabolized to a lower extend upon 30 min preincubation compared to 0 min preincubation. In general low effects upon 30 min preincubation are desired (corresponding to values close to 100%)
# [7] = KRAS::SOS1 AlphaScreen, KRAS G12D, IC50, tables 20 and 24
# [8] = KRAS G12D::SOS1 AlphaScreen, measured without EDTA unless marked with an asterisk
# T2 sequence (P08684 whole entry): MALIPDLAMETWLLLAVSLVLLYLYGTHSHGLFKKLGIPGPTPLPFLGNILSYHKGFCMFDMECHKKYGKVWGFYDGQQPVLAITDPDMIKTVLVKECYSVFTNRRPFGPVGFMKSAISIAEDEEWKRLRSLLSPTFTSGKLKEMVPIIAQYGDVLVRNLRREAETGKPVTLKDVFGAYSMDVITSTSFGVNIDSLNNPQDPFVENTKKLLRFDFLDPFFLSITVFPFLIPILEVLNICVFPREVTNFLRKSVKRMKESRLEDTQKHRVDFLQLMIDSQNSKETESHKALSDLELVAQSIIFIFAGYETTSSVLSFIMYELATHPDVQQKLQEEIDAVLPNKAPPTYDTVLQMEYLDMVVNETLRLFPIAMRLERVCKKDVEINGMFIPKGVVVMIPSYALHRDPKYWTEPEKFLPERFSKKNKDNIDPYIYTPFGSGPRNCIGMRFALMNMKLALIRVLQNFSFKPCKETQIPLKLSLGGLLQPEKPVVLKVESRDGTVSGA
"IC50 [1, 7] [nM]",IC50 [2] [nM],"IC50 [1, 8] [nM]",SMILES,HLM [% QH] [3] [% QH],RLM [% QH] [4] [% QH],MLM [% QH] [5] [% QH],TDI 3A4 [%] [6] [%]
9,–,–,C[C@@H](Nc1ncnc2cc(=O)n(C34CC(F)(C3)C4)cc12)c1cccc(C(C)(F)F)c1F [I-78],<24,<23,<24,–
18,–,–,Cc1c(=O)n(C2(C)CC2)cc2c(N[C@H](C)c3cccc(C(F)(F)F)c3)ncnc12 [I-173],–,–,–,84

# The next lines start with the molecule.
SMILES,"IC50 [1, 7] [nM]",IC50 [2] [nM],"IC50 [1, 8] [nM]",HLM [% QH] [3] [% QH],RLM [% QH] [4] [% QH],MLM [% QH] [5] [% QH],TDI 3A4 [%] [6] [%]
Cc1nc(N[C@H](C)c2cccc(C(F)(F)F)c2C)c2cn([C@H]3C[C@H](F)C3)c(=O)cc2n1 [I-45],11,47,–,–,–,–,–
Cc1nc(N[C@H](C)c2cccc(C(F)(F)F)c2C)c2cn(C34CCN(CC3)CC4)c(=O)cc2n1 [I-128],–,–,2,29,<23,<24,98
Cc1nc(N[C@H](C)c2cccc(C(C)(F)F)c2)c2cn(C3(C(F)(F)F)CCOC3)c(=O)cc2n1 (stereo partly drawn) [I-129],–,–,18,–,–,–,–
C[C@@H](Nc1ncnc2c(C3CC3)c(=O)n(C3(C)CC3)cc12)c1cccc(C(F)F)c1F [I-179],–,–,11,–,–,–,–
